Results on two molecules are retold here after US20200308299A1, “ANTI-GPC-1 ANTIBODY” (National University Corporation Kochi University, priority 2017, published 2020).

Non-standard residues stand in square brackets, D forms with d. Residues, ends and D or L forms follow the SMILES beside them. *: point of attachment. Dolaproine = CO[C@@H]([C@@H]1CCCN1)[C@@H](C)C(=O)O; Dil = CC[C@H](C)[C@H](NC)[C@@H](CC(=O)O)OC; X1 = C[C@@H](N*)[C@@H](O)c1ccccc1; NMeV = CN[C@H](C(=O)O)C(C)C

By IC50 is commonly meant the concentration at which inhibition is half-maximal. Low values mean greater potency in that assay, high ones weaker potency in that assay.

The experiment has as its system TE14 cells. The experiment is described as follows: Anticancer agent sensitivity of TE14 cells (CellTiter-Glo cell viability). The class given is cell-based. Particulars: cultured 6 days. The method, then: 2000 TE14 cells were added to a 96-well plate at 90 μl. The cells were cultured overnight at 37° C. in a 5% CO2 incubator. The next day, 10 μl of an anticancer agent concentrated 10-fold relative to the final concentration was added to each well, so that the total amount was 100 μl. The cells were cultured for 6 days at 37° C. in a 5% CO2 incubator. The cell viability was measured by using a CellTiter-Glo Luminescent Cell Viability Assay reagent to detect the amount of ATP. RPMI1640+10% FBS+1% PS was used as the medium. MMAE (model number: 474645-27-7, ALB Technology) and MMAF (model number: 745017-94-1, ALB Technology) were used as the anticancer agent.
In general terms: Cellular ATP, detected with luciferase, serves as a proxy for viable cell number.

With `CC[C@H](C)[C@@H]([C@@H](CC(=O)N1CCC[C@H]1[C@H](OC)[C@@H](C)C(=O)N[C@H](C)[C@@H](O)c1ccccc1)OC)N(C)C(=O)[C@@H](NC(=O)[C@@H](NC)C(C)C)C(C)C` [MMAE, monomethyl auristatin-E] (H-[NMeV]V[Dil][Dolaproine]-X1), the IC50 worked out at 0.926 nM.
Then `CC[C@H](C)[C@@H]([C@@H](CC(=O)N1CCC[C@H]1[C@H](OC)[C@@H](C)C(=O)N[C@@H](Cc1ccccc1)C(=O)O)OC)N(C)C(=O)[C@@H](NC(=O)[C@@H](NC)C(C)C)C(C)C` [MMAF, monomethyl auristatin-F] (H-[NMeV]V[Dil][Dolaproine]F-OH), with 26.8 nM.
